Test results: patent US7507717B2 (Xenome Ltd., priority 2002, dated 2009)
Residues, ends and D or L forms follow the SMILES beside them.

The compounds below were run against T1, human noradrenaline transporter (hNET) (Homo sapiens, UniProt P23975) (assay: biochemical). Details: not given.
T1 construct: expressed in transfected cells; host or cells: COS-7 cells (ATCC), transient transfection with metafectene
Format: binding

T1 sequence (P23975 whole entry): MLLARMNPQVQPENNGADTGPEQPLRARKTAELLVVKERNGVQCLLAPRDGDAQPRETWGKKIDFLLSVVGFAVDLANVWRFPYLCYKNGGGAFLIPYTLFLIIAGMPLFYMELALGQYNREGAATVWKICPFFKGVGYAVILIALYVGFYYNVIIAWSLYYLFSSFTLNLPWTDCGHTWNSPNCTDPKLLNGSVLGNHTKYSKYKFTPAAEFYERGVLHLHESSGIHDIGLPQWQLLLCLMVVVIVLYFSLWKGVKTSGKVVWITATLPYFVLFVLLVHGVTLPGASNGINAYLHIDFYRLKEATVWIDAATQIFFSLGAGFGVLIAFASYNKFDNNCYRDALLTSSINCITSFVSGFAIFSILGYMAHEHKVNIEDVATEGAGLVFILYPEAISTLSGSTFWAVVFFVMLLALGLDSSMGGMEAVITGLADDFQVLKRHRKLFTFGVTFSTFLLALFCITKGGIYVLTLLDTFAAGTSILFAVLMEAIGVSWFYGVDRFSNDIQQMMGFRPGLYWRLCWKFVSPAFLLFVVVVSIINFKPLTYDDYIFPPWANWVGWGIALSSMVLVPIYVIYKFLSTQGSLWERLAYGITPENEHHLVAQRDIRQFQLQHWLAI

Compound	Av IC50 Displacement of 3H-nisoxetine from hNET
YNGVCCGYKLCRPC [compound 207]	−2.00
YNGVCCGYKLCEPC [compound 210]	−2.00
YNGVCCGYYLCHPC [compound 212]	−2.00
YNGVCCGYILCHPC [compound 208]	−2.00

Same assay, conditions: Av IC50 Displacement of 3H-nisoxetine from hNET

Compound	IC50
CC(C)C[C@@H]1NC(=O)[C@H](CCCCN)NC(=O)[C@H](CCC(=O)O)NC(=O)CNC(=O)[C@@H]2CSSC[C@H](NC1=O)C(=O)N[C@@H](Cc1c[nH]cn1)C(=O)N1CCC[C@H]1C(=O)N[C@H](C(N)=O)CSSC[C@H](NC(=O)[C@@H](NC(=O)CNC(=O)[C@H](CC(N)=O)NC(=O)[C@@H](N)Cc1ccc(O)cc1)C(C)C)C(=O)N2 [compound 195] (HELM PEPTIDE1{Y.N.G.V.C.C.G.E.K.L.C.H.P.C.[am]}$PEPTIDE1,PEPTIDE1,5:R3-14:R3|PEPTIDE1,PEPTIDE1,6:R3-11:R3$$$V2.0)	170 µM
CC(C)C[C@@H]1NC(=O)[C@H](CCCCN)NC(=O)[C@H](Cc2ccc(O)cc2)NC(=O)CNC(=O)[C@@H]2CSSC[C@H](NC1=O)C(=O)N[C@@H](Cc1c[nH]cn1)C(=O)N[C@@H](Cc1ccc(O)cc1)C(=O)N[C@H](C(N)=O)CSSC[C@H](NC(=O)[C@@H](NC(=O)CNC(=O)[C@@H](N)CC(N)=O)C(C)C)C(=O)N2 [compound 165]	7.08 µM
CC(=O)N[C@@H](Cc1ccc(O)cc1)C(=O)N[C@@H](CC(N)=O)C(=O)NCC(=O)N[C@H](C(=O)N[C@H]1CSSC[C@@H](C(N)=O)NC(=O)[C@@H]2CCCN2C(=O)[C@H](Cc2c[nH]cn2)NC(=O)[C@@H]2CSSC[C@H](NC1=O)C(=O)NCC(=O)N[C@@H](Cc1ccc(O)cc1)C(=O)N[C@@H](CCCCN)C(=O)N[C@@H](CC(C)C)C(=O)N2)C(C)C [compound 161]	6.17 µM
CC(C)C[C@@H]1NC(=O)[C@H](CCCCN)NC(=O)[C@H](Cc2ccc(O)cc2)NC(=O)CNC(=O)[C@@H]2CSSC[C@H](NC1=O)C(=O)N[C@@H](Cc1c[nH]cn1)C(=O)N1CCC[C@H]1C(=O)N[C@H](C(N)=O)CSSC[C@H](NC(=O)[C@@H](NC(=O)CNC(=O)[C@H](CC(N)=O)NC(=O)[C@@H](N)Cc1ccc(O)cc1)C(C)C)C(=O)N2 [compound 116]	1.12 µM
CC(C)C[C@@H]1NC(=O)[C@H](CCCCN)NC(=O)[C@H](Cc2ccc(O)cc2)NC(=O)[C@@H](CCC(=O)O)NC(=O)[C@@H]2CSSC[C@H](NC1=O)C(=O)N[C@@H](Cc1c[nH]cn1)C(=O)N1CCC[C@H]1C(=O)N[C@H](C(N)=O)CSSC[C@H](NC(=O)[C@@H](NC(=O)CNC(=O)[C@@H](N)CC(N)=O)C(C)C)C(=O)N2 [compound 183]	61.7 µM
CC(C)C[C@@H]1NC(=O)[C@H](Cc2ccccc2)NC(=O)[C@H](Cc2ccc(O)cc2)NC(=O)CNC(=O)[C@@H]2CSSC[C@H](NC1=O)C(=O)N[C@@H](Cc1c[nH]cn1)C(=O)N1CCC[C@H]1C(=O)N[C@H](C(N)=O)CSSC[C@H](NC(=O)[C@@H](NC(=O)CNC(=O)[C@H](CC(N)=O)NC(=O)[C@@H](N)Cc1ccc(O)cc1)C(C)C)C(=O)N2 [compound 179] (HELM PEPTIDE1{Y.N.G.V.C.C.G.Y.F.L.C.H.P.C.[am]}$PEPTIDE1,PEPTIDE1,5:R3-14:R3|PEPTIDE1,PEPTIDE1,6:R3-11:R3$$$V2.0)	25.1 µM
CC(C)C[C@@H]1NC(=O)[C@H](CCCCN)NC(=O)[C@H](CC(N)=O)NC(=O)CNC(=O)[C@@H]2CSSC[C@H](NC1=O)C(=O)N[C@@H](Cc1c[nH]cn1)C(=O)N1CCC[C@H]1C(=O)N[C@H](C(N)=O)CSSC[C@H](NC(=O)[C@@H](NC(=O)CNC(=O)[C@H](CC(N)=O)NC(=O)[C@@H](N)Cc1ccc(O)cc1)C(C)C)C(=O)N2 [compound 184] (HELM PEPTIDE1{Y.N.G.V.C.C.G.N.K.L.C.H.P.C.[am]}$PEPTIDE1,PEPTIDE1,5:R3-14:R3|PEPTIDE1,PEPTIDE1,6:R3-11:R3$$$V2.0)	79.4 µM
CC(C)C[C@@H]1NC(=O)CNC(=O)[C@@H]2CSSC[C@H](NC(=O)[C@H](CC(C)C)NC(=O)[C@H](CCCCN)NC1=O)C(=O)N[C@@H](Cc1c[nH]cn1)C(=O)N1CCC[C@H]1C(=O)N[C@H](C(N)=O)CSSC[C@H](NC(=O)[C@@H](NC(=O)CNC(=O)[C@H](CC(N)=O)NC(=O)[C@@H](N)Cc1ccc(O)cc1)C(C)C)C(=O)N2 [compound 171] (HELM PEPTIDE1{Y.N.G.V.C.C.G.L.K.L.C.H.P.C.[am]}$PEPTIDE1,PEPTIDE1,5:R3-14:R3|PEPTIDE1,PEPTIDE1,6:R3-11:R3$$$V2.0)	10.7 µM
CC(C)C[C@@H]1NC(=O)[C@H](CCCCN)NC(=O)[C@H](Cc2ccc(O)cc2)NC(=O)CNC(=O)[C@@H]2CSSC[C@H](NC1=O)C(=O)N[C@@H](CCCNC(=N)N)C(=O)N1CCC[C@H]1C(=O)N[C@H](C(N)=O)CSSC[C@H](NC(=O)[C@@H](NC(=O)CNC(=O)[C@H](CC(N)=O)NC(=O)[C@@H](N)Cc1c[nH]c3ccccc13)C(C)C)C(=O)N2 [compound 60]	0.178 µM
CC(C)C[C@@H]1NC(=O)[C@H](CCCCN)NC(=O)[C@H](Cc2ccc(O)cc2)NC(=O)CNC(=O)[C@@H]2CSSC[C@H](NC1=O)C(=O)N[C@@H](Cc1c[nH]cn1)C(=O)N1CCC[C@H]1C(=O)N[C@H](C(N)=O)CSSC[C@H](NC(=O)[C@@H](NC(=O)[C@H](CCCNC(=N)N)NC(=O)[C@H](CC(N)=O)NC(=O)[C@@H](N)Cc1ccc(O)cc1)C(C)C)C(=O)N2 [compound 118] (HELM PEPTIDE1{Y.N.R.V.C.C.G.Y.K.L.C.H.P.C.[am]}$PEPTIDE1,PEPTIDE1,5:R3-14:R3|PEPTIDE1,PEPTIDE1,6:R3-11:R3$$$V2.0)	1.17 µM
CC(C)C[C@@H]1NC(=O)[C@H](CCCCN)NC(=O)[C@H](Cc2ccc(O)cc2)NC(=O)CNC(=O)[C@@H]2CSSC[C@H](NC1=O)C(=O)N[C@@H](Cc1c[nH]cn1)C(=O)N1CCC[C@H]1C(=O)N[C@H](C(N)=O)CSSC[C@H](NC(=O)[C@@H](NC(=O)CNC(=O)[C@@H](N)CC(=O)O)C(C)C)C(=O)N2 [compound 151]	3.55 µM
CC(C)C[C@@H]1NC(=O)[C@H](CCCCN)NC(=O)[C@H](Cc2ccc(O)cc2)NC(=O)CNC(=O)[C@@H]2CSSC[C@H](NC1=O)C(=O)N[C@@H](Cc1c[nH]cn1)C(=O)N1CCC[C@H]1C(=O)N[C@H](C(N)=O)CSSC[C@H](NC(=O)[C@@H](NC(=O)[C@H](CCCCN)NC(=O)[C@H](CC(N)=O)NC(=O)[C@@H](N)Cc1ccc(O)cc1)C(C)C)C(=O)N2 [compound 110] (HELM PEPTIDE1{Y.N.K.V.C.C.G.Y.K.L.C.H.P.C.[am]}$PEPTIDE1,PEPTIDE1,5:R3-14:R3|PEPTIDE1,PEPTIDE1,6:R3-11:R3$$$V2.0)	0.977 µM
CC(C)C[C@@H]1NC(=O)[C@H](CCCCN)NC(=O)[C@H](Cc2ccc(O)cc2)NC(=O)CNC(=O)[C@@H]2CSSC[C@H](NC1=O)C(=O)N[C@@H](Cc1c[nH]cn1)C(=O)N1CCC[C@H]1C(=O)N[C@H](C(N)=O)CSSC[C@H](NC(=O)[C@@H](NC(=O)CNC(=O)[C@@H](N)CC(N)=O)[C@@H](C)O)C(=O)N2 [compound 138] (HELM PEPTIDE1{N.G.T.C.C.G.Y.K.L.C.H.P.C.[am]}$PEPTIDE1,PEPTIDE1,4:R3-13:R3|PEPTIDE1,PEPTIDE1,5:R3-10:R3$$$V2.0)	2.29 µM
CC(C)C[C@@H]1NC(=O)[C@H](CCCCN)NC(=O)[C@H](Cc2ccc(O)cc2)NC(=O)CNC(=O)[C@@H]2CSSC[C@H](NC1=O)C(=O)N[C@@H](Cc1c[nH]cn1)C(=O)N1CCC[C@H]1C(=O)N[C@H](C(N)=O)CSSC[C@H](NC(=O)[C@@H](NC(=O)[C@H](CC(=O)O)NC(=O)[C@@H](N)CC(N)=O)C(C)C)C(=O)N2 [compound 63] (HELM PEPTIDE1{N.D.V.C.C.G.Y.K.L.C.H.P.C.[am]}$PEPTIDE1,PEPTIDE1,4:R3-13:R3|PEPTIDE1,PEPTIDE1,5:R3-10:R3$$$V2.0)	0.191 µM
CC[C@H](C)[C@H](NC(=O)CNC(=O)[C@@H](N)CC(N)=O)C(=O)N[C@H]1CSSC[C@@H](C(N)=O)NC(=O)[C@@H]2CCCN2C(=O)[C@H](Cc2c[nH]cn2)NC(=O)[C@@H]2CSSC[C@H](NC1=O)C(=O)NCC(=O)N[C@@H](Cc1ccc(O)cc1)C(=O)N[C@@H](CCCCN)C(=O)N[C@@H](CC(C)C)C(=O)N2 [compound 125] (HELM PEPTIDE1{N.G.I.C.C.G.Y.K.L.C.H.P.C.[am]}$PEPTIDE1,PEPTIDE1,4:R3-13:R3|PEPTIDE1,PEPTIDE1,5:R3-10:R3$$$V2.0)	1.41 µM
CC(C)C[C@H](NC(=O)[C@H](CC(=O)O)NC(=O)[C@H](CCCCN)NC(=O)[C@@H](N)Cc1c[nH]c2ccccc12)C(=O)N[C@H]1CSSC[C@@H](C(N)=O)NC(=O)[C@@H]2CCCN2C(=O)[C@H](Cc2c[nH]c3ccccc23)NC(=O)[C@@H]2CSSC[C@H](NC1=O)C(=O)NCC(=O)N[C@@H](Cc1ccc(O)cc1)C(=O)N[C@@H](CCCCN)C(=O)N[C@@H](CC(C)C)C(=O)N2 [compound 90] (HELM PEPTIDE1{W.K.D.L.C.C.G.Y.K.L.C.W.P.C.[am]}$PEPTIDE1,PEPTIDE1,5:R3-14:R3|PEPTIDE1,PEPTIDE1,6:R3-11:R3$$$V2.0)	0.355 µM
CC(C)C[C@@H]1NC(=O)[C@H](CCCCN)NC(=O)[C@H](Cc2ccc(O)cc2)NC(=O)CNC(=O)[C@@H]2CSSC[C@H](NC1=O)C(=O)N[C@@H](Cc1c[nH]c3ccccc13)C(=O)N1CCC[C@H]1C(=O)N[C@H](C(N)=O)CSSC[C@H](NC(=O)[C@@H](NC(=O)CNC(=O)[C@@H](N)CC(N)=O)C(C)C)C(=O)N2 [compound 59] (HELM PEPTIDE1{N.G.V.C.C.G.Y.K.L.C.W.P.C.[am]}$PEPTIDE1,PEPTIDE1,4:R3-13:R3|PEPTIDE1,PEPTIDE1,5:R3-10:R3$$$V2.0)	0.174 µM
CC(C)C[C@@H]1NC(=O)[C@H](CCC(N)=O)NC(=O)[C@H](Cc2ccc(O)cc2)NC(=O)CNC(=O)[C@@H]2CSSC[C@H](NC1=O)C(=O)N[C@@H](Cc1c[nH]cn1)C(=O)N1CCC[C@H]1C(=O)N[C@H](C(N)=O)CSSC[C@H](NC(=O)[C@@H](NC(=O)CNC(=O)[C@@H](N)CC(N)=O)C(C)C)C(=O)N2 [compound 194] (HELM PEPTIDE1{N.G.V.C.C.G.Y.Q.L.C.H.P.C.[am]}$PEPTIDE1,PEPTIDE1,4:R3-13:R3|PEPTIDE1,PEPTIDE1,5:R3-10:R3$$$V2.0)	123 µM
CC(C)C[C@@H]1NC(=O)[C@H](C)NC(=O)[C@H](Cc2ccc(O)cc2)NC(=O)CNC(=O)[C@@H]2CSSC[C@H](NC1=O)C(=O)N[C@@H](Cc1c[nH]cn1)C(=O)N1CCC[C@H]1C(=O)N[C@H](C(N)=O)CSSC[C@H](NC(=O)[C@@H](NC(=O)CNC(=O)[C@@H](N)CC(N)=O)C(C)C)C(=O)N2 [compound 172]	10.7 µM
